Data as given in BindingDB's records for doi:10.1021/jm00381a012 (1985).

Each molecule was assayed against T1, Angiotensin-converting enzyme (Oryctolagus cuniculus, UniProt P12822) (assay: ChEBML_34797).
T1 sequence (P12822 whole entry): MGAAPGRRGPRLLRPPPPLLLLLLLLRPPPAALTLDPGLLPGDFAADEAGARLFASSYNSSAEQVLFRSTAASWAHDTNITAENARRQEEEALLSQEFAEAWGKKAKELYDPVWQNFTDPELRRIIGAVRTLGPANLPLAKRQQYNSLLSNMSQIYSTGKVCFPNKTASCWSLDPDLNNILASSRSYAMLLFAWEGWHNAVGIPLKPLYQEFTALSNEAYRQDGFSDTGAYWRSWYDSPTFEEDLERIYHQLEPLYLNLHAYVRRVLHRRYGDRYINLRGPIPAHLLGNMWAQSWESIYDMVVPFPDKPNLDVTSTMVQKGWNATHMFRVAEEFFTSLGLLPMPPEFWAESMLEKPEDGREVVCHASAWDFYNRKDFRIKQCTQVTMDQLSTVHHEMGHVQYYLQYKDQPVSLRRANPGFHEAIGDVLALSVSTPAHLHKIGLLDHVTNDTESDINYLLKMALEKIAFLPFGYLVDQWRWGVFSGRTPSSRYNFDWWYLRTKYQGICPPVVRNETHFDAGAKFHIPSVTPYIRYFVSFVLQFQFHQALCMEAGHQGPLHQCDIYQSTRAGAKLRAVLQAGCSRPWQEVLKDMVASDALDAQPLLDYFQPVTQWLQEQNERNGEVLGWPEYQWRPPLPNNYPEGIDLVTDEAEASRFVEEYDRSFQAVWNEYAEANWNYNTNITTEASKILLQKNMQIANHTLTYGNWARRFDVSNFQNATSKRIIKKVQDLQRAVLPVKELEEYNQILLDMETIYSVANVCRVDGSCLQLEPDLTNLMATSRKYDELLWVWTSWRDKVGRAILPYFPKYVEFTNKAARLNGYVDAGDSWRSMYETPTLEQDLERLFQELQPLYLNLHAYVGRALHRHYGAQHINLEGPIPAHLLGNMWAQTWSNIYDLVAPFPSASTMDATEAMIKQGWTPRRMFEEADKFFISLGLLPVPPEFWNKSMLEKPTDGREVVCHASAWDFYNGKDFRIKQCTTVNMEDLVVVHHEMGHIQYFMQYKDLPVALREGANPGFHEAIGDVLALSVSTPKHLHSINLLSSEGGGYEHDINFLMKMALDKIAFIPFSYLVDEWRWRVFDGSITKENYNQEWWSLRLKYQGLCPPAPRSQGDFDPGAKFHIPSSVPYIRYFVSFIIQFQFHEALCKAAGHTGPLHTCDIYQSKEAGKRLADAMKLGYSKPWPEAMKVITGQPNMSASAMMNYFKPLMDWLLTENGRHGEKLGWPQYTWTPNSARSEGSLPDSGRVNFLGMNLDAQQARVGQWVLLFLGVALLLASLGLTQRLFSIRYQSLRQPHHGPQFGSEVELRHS

IC50, > 100 µM:
O=C(O)CN(C(=O)c1ccc(Cl)cc1S)C1CCCC1
CC(C)(C)C(=O)Sc1ccccc1C(=O)N(CC(=O)O)C1CCCC1
CC(=O)Sc1c(C(=O)N(CC(=O)O)C2CCCC2)cccc1C(C)C
